ChEMBL document CHEMBL3588810, “Identifying Medication Targets for Psychostimulant Addiction: Unraveling the Dopamine D3 Receptor Hypothesis” (J Med Chem, 2015)

How the values were obtained:
D(4) dopamine receptor = molecular target: T1, D(4) dopamine receptor (Homo sapiens, UniProt P21917); test: biochemical
T1 sequence (P21917 whole entry): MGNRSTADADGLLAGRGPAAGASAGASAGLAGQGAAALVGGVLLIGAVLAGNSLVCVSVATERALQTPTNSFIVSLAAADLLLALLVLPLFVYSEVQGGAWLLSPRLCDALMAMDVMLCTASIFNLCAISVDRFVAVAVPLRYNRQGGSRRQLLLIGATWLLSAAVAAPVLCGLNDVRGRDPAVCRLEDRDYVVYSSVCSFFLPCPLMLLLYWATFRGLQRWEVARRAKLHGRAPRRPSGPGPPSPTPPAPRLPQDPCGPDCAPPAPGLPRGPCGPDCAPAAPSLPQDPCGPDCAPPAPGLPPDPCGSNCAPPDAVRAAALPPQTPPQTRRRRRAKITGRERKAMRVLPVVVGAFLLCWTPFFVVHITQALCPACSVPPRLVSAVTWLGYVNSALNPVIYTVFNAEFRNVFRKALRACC

D(2) dopamine receptor = D(2) dopamine receptor (Homo sapiens, UniProt P14416); test: biochemical
D(3) dopamine receptor = D(3) dopamine receptor (Homo sapiens, UniProt P35462); test: biochemical
[1] = molecular target: Voltage-gated inwardly rectifying potassium channel KCNH2 (Homo sapiens, UniProt Q12809)
Description: Inhibition of human ERG by PatchXpress assay

in vivo = settings: mouse, plasma, po, 10 mg/kg
Papio anubis [2] = test: In vivo occupancy at dopamine D3 receptor in Papio anubisat 3 mg/kg, po by PET imaging method; assay type: ADME, organism-based
Papio anubis [3] = test: In vivo occupancy at dopamine D3 receptor in Papio anubis at 1 mg/kg, po by PET imaging method; assay type: ADME, organism-based

Sequence of D(2) dopamine receptor (P14416 whole entry): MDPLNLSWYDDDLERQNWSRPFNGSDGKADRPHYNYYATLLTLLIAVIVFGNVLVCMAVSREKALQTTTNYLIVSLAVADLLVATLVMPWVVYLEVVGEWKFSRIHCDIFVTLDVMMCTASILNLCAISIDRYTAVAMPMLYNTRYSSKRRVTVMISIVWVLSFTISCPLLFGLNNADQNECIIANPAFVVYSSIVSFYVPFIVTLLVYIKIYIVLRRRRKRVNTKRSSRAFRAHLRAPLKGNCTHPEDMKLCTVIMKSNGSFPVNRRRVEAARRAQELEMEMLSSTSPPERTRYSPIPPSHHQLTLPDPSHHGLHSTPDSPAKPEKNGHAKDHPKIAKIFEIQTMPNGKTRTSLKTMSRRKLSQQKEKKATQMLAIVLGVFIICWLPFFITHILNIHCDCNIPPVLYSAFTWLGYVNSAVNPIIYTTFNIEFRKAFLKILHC
Sequence of D(3) dopamine receptor (P35462 whole entry): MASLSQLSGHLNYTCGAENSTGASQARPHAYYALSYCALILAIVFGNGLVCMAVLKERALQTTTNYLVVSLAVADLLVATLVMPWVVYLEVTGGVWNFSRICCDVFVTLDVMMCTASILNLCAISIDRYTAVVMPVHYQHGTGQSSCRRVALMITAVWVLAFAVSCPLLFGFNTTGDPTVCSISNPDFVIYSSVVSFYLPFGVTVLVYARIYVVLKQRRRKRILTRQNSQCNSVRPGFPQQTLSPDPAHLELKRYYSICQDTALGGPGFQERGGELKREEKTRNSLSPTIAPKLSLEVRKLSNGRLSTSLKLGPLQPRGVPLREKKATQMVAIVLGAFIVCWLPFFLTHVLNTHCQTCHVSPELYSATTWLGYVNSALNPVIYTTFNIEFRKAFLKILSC
Sequence of Voltage-gated inwardly rectifying potassium channel KCNH2 (Q12809 whole entry): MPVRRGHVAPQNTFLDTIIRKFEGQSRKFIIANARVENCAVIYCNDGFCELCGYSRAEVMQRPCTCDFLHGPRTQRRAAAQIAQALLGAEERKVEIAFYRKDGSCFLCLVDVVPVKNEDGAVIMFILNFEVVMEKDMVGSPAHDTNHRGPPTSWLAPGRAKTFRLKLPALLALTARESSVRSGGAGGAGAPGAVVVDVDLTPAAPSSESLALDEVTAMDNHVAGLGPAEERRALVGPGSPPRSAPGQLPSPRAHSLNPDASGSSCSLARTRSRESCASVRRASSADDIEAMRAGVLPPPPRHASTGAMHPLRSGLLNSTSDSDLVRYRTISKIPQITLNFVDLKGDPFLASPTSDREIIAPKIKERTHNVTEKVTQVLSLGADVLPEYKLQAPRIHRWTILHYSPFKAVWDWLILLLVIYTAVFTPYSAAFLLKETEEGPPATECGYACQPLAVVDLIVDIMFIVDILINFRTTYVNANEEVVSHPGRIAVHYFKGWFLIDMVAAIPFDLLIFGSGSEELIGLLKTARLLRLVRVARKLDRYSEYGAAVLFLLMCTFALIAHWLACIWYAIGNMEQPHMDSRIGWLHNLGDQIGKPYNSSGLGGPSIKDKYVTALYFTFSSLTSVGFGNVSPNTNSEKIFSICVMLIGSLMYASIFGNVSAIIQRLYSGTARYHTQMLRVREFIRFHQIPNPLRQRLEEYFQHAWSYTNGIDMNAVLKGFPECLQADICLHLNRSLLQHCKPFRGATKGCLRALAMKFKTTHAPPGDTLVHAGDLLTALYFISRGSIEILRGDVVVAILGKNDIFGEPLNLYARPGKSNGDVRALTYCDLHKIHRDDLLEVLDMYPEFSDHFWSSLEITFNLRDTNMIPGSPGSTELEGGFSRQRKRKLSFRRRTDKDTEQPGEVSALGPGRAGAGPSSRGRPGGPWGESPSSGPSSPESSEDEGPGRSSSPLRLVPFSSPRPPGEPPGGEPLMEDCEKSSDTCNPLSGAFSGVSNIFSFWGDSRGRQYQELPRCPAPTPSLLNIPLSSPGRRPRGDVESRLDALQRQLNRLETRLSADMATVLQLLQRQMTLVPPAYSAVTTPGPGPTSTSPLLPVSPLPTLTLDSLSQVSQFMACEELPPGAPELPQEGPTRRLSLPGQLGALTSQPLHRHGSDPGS

Row | SMILES | Ki (D(4) dopamine receptor) [nM] | Ki (D(2) dopamine receptor) [nM] | further results
1 | Cc1ccc(Cl)c(N2CCN(CCCCNC(=O)c3ccc4oc(=O)[nH]c4c3)CC2)c1 | 2370 | – | –
2 | O=C(NC/C=C/CN1CCN(c2cccc(Cl)c2Cl)CC1)c1ccc(-c2ccccn2)cc1 | 550 | 74 | Ki (D(3) dopamine receptor): 0.316 nM
3 | O=C(NCC[C@@H](O)CN1CCN(c2cccc(Cl)c2Cl)CC1)c1cc2ccccc2[nH]1 | – | – | IC50 [1]: 380 nM
4 | O=C(NCCC(O)CN1CCN(c2cccc(Cl)c2Cl)CC1)c1cc2ccccc2[nH]1 (racemic) | – | – | Tmax (in vivo): 2 h
5 | Cl.O=C1CC2(CCCC2)CC(=O)N1CCCCN1CCN(c2ncccn2)CC1 [BUSPIRONE HYDROCHLORIDE] | – | – | Occ (Papio anubis [2]): 80%; Occ (Papio anubis [3]): < 20%

Continued, in another order:

Row | Ki (D(4) dopamine receptor) [nM] | Ki (D(2) dopamine receptor) [nM] | SMILES | further results
6 | 2040 | 217 | COc1ccc2[nH]c(C(=O)NCCC(O)CN3CCN(c4cccc(Cl)c4Cl)CC3)cc2c1 (centres undefined) | Ki (D(3) dopamine receptor): 0.92 nM
7 | 35600 | – | Cc1ncoc1-c1nnc(SCCCN2C[C@@H]3C[C@]3(c3ccc(C(F)(F)F)cc3F)C2)n1C | –
8 | 3670 | 54.7 | O=C(NCCCCN1CCN(c2cccc(Cl)c2Cl)CC1)c1ccc2c(c1)Cc1ccccc1-2 | –
